From ChEMBL document CHEMBL2401674, “Inhibition of Candida albicans isocitrate lyase activity by cadiolides and synoilides from the ascidian Synoicum sp” (Bioorg Med Chem Lett, 2013)
Activity calls are given as the source filed them. The rule behind the calls is not given here.

Experiments:
Candida albicans [1] = experiment: Antifungal activity against Candida albicans SC5314 assessed as growth inhibition after 48 hrs in presence of 2% glucose; format: functional; conditions: SC5314, 48 h
Candida albicans [2] = experiment: Antifungal activity against Candida albicans SC5314 assessed as growth inhibition after 48 hrs in presence of 2% potassium acetate; format: functional; conditions: SC5314, 48 h
Isocitrate lyase = Isocitrate lyase (Candida albicans, UniProt Q9P8Q7); experiment: Inhibition of recombinant Candida albicans ATCC 10231 ICL using phenylhydrazine and isocitrate as substrate assessed as formation of glyoxylate phenylhydrazone after 30 mins by spectrophotometric analysis
Candida albicans [3] = experiment: Downregulation of mRNA expression in wild type Candida albicans SC5314 at 12.5 ug/ml after 4 hrs by RT-PCR analysis relative to control; format: functional
Candida albicans [4] = experiment: Antifungal activity against icl-deficient Candida albicans MRC11 expressing ICL assessed as growth inhibition at 12.5 ug/ml after 3 days in presence of glucose; format: functional, organism-based
Candida albicans [5] = experiment: Antifungal activity against icl-deficient Candida albicans MRC11 expressing ICL assessed as growth inhibition at 12.5 ug/ml after 3 days in presence of sodium acetate; format: functional, organism-based
Candida albicans [6] = experiment: Antifungal activity against wild type Candida albicans SC5314 assessed as growth inhibition at 12.5 ug/ml after 3 days in presence of sodium acetate; format: functional, organism-based
Candida albicans [7] = experiment: Antifungal activity against icl-deficient Candida albicans MRC10 assessed as growth inhibition at 12.5 ug/ml after 3 days in presence of glucose; format: functional, organism-based
Candida albicans [8] = experiment: Antifungal activity against wild type Candida albicans SC5314 assessed as growth inhibition at 12.5 ug/ml after 3 days in presence of glucose; format: functional, organism-based
Candida albicans [9] = experiment: Downregulation of mRNA expression in icl-deficient Candida albicans MRC11 expressing ICL at 12.5 ug/ml after 4 hrs by RT-PCR analysis relative to control; format: functional
Candida albicans [10] = experiment: Antifungal activity against icl-deficient Candida albicans MRC10 assessed as growth inhibition at 12.5 ug/ml after 3 days in presence of sodium acetate; format: functional, organism-based

Chain of Isocitrate lyase (Q9P8Q7 whole entry): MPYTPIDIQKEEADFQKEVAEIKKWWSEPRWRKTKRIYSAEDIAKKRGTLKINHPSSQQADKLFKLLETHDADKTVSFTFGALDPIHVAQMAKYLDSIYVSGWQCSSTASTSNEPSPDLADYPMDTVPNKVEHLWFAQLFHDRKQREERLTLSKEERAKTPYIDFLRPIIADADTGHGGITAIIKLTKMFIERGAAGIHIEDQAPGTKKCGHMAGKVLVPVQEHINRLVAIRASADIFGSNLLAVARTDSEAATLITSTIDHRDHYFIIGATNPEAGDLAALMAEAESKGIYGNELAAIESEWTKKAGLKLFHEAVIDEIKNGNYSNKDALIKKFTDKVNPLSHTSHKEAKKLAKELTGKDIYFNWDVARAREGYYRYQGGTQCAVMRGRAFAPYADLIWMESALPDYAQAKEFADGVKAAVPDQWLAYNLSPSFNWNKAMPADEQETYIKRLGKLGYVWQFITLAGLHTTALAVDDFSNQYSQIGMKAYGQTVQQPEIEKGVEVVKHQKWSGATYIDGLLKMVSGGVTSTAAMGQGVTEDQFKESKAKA

| SMILES | MIC (Candida albicans [1]) | MIC (Candida albicans [2]) | IC50 (Isocitrate lyase) | fold change (FC) (Candida albicans [3]) | growth inhibition (GI) (Candida albicans [4]) | growth inhibition (GI) (Candida albicans [5]) | growth inhibition (GI) (Candida albicans [6]) | growth inhibition (GI) (Candida albicans [7]) | growth inhibition (GI) (Candida albicans [8]) | fold change (FC) (Candida albicans [9]) | growth inhibition (GI) (Candida albicans [10]) |
| --- | --- | --- | --- | --- | --- | --- | --- | --- | --- | --- | --- |
| O=C(O)CC[N+](=O)[O-] | > 200 µg/mL | 200 µg/mL | 13.9 µM | – | – | – | – | – | – | – | – |
| O=C1O/C(=C\c2cc(Br)c(O)c(Br)c2)C(c2ccc(O)c(Br)c2)=C1C(=O)c1cc(Br)c(O)c(Br)c1 [CADIOLIDE E] | > 200 µg/mL | 12.5 µg/mL | 7.62 µM | 5 | inactive | Active | Active | inactive | inactive | 5 | Active |
| COC(=O)/C(C(=O)c1cc(Br)c(O)c(Br)c1)=C(\C(=O)OC)c1ccc(O)c(Br)c1 | > 200 µg/mL | 100 µg/mL | 122 µM | – | – | – | – | – | – | – | – |
| C[C@@H]1[C@H](O)[C@@H](C)/C=C/C=C/C=C/C=C/C=C/C=C/C=C/[C@H](O[C@@H]2O[C@H](C)[C@@H](O)[C@H](N)[C@@H]2O)C[C@@H]2O[C@](O)(C[C@@H](O)C[C@@H](O)[C@H](O)CC[C@@H](O)C[C@@H](O)CC(=O)O[C@H]1C)C[C@H](O)[C@H]2C(=O)O [AMPHOTERICIN B] | 1.56 µg/mL | 1.56 µg/mL | – | – | – | – | – | – | – | – | – |
| COC(=O)C1=C(c2cc(Br)c(O)c(Br)c2)C(=O)OC1=C(c1cc(Br)c(O)c(Br)c1)c1cc(Br)c(O)c(Br)c1 [CADIOLIDE I] | > 200 µg/mL | 50 µg/mL | 10.4 µM | – | – | – | – | – | – | – | – |
| COC(=O)/C(C(=O)c1cc(Br)c(O)c(Br)c1)=C(\C(=O)OC)c1cc(Br)c(O)c(Br)c1 | > 200 µg/mL | 100 µg/mL | 75.2 µM | – | – | – | – | – | – | – | – |
| COc1c(Br)cc([C@H](O)C2=C(c3ccc(O)c(Br)c3)/C(=C/c3ccc(O)c(Br)c3)OC2=O)cc1Br [CADIOLIDE G] | > 200 µg/mL | 50 µg/mL | 48.8 µM | – | – | – | – | – | – | – | – |
| COc1ccc(/C=C2\OC(=O)C([C@@H](O)c3cc(Br)c(OC)c(Br)c3)=C2c2cc(Br)c(O)c(Br)c2)cc1 | > 200 µg/mL | 50 µg/mL | 17.2 µM | – | – | – | – | – | – | – | – |
